Experimental data: paper PMC4113009, “Dihydroisoxazole inhibitors of Anopheles gambiae seminal transglutaminase AgTG3” (Malaria Journal, 2014)

Experiments:
human caspase-1 = target: T1, human caspase-1 (Homo sapiens, UniProt P29466); assay: Cysteine protease inhibition assay, caspase-1 (Ac-YVAD-pNA); assay type: biochemical; conditions: 3 at 100 μM, compared to a DMSO control, chromogenic assay
T1 construct: purchased Abcam
T1 sequence (P29466 120-297 limits assumed): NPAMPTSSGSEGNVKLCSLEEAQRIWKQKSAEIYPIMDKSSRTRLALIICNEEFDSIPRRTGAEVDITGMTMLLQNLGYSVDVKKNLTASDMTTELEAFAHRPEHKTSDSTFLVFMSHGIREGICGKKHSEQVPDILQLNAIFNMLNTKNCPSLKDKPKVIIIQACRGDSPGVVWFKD
T1 sequence (P29466 317-404 limits assumed): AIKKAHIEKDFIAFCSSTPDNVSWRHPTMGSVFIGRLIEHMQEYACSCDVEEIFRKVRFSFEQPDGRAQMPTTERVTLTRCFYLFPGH
Experimental: The activity of caspase-1 was determined by use of chromogenic substrate Ac-YVAD-pNA (Enzo Life Sciences, NY, USA). The assay was performed by adding 45 μL of 1 Unit caspase-1 (Abcam, MA, USA) and 5 μL of Ac-YVAD-pNA (final concentration, 5 μM) to 50 μL assay buffer (50 mM HEPES pH 7.4, 10 mM DTT, 1 mM EDTA, 0.1% CHAPS, 20% glycerol). Substrate cleavage after 1 h incubation at 37°C was measured by […] absorbance at 400 nm in a benchtop UV/Vis spectrophotometer (UV1800, Shimadzu, Kyoto, Japan).
Transglutaminases and cysteine proteases have a similar catalytic mechanism involving an active site cysteine and formation of a thioacyl intermediate. […] To test this hypothesis, the inhibition of two cysteine proteases, human caspase-1 and recombinant tobacco etch virus (TEV) protease by 3 at 100 μM were tested using a chromogenic and SDS-PAGE assay, respectively (Figure 9). […] Neither human caspase-1 nor TEV are endogenous proteins in A. gambiae, which may well contain other endogenous targets of 1–3, not least the two other transglutaminases in the A. gambiae genome.

AgTG3 [1] = target: T2, AgTG3 (Anopheles gambiae, UniProt D2K8K8); assay: Covalent modification of AgTG3 by ESI-MS and tandem MS/MS; assay type: binding
T2 sequence (D2K8K8 entry or part of it): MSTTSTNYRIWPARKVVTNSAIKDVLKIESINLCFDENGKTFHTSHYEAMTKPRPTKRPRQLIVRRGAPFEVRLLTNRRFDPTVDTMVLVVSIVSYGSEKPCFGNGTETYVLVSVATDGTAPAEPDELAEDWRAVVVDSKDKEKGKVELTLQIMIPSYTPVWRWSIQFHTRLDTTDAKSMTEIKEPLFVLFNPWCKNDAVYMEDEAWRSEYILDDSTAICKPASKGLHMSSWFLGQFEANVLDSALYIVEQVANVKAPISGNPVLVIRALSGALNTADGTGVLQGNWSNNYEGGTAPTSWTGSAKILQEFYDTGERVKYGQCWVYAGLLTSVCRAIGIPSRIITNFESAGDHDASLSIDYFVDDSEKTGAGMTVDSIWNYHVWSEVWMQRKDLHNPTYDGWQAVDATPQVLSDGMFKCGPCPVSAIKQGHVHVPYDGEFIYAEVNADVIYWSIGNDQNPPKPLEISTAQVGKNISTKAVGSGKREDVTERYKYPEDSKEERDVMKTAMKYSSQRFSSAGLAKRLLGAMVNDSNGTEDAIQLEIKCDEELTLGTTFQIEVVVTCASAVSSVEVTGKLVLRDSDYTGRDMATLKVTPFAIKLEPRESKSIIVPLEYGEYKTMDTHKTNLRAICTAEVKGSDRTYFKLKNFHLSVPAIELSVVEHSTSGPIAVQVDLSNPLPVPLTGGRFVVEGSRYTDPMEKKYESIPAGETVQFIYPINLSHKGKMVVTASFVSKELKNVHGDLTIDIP
Experimental: Recombinant AgTG3 (20 μM) was dialyzed against HEPES buffer containing 100 mM NaCl, 10 mM CaCl2, and 5% glycerol. Inhibitors were added to a final concentration of 100 μM and incubated overnight. Samples were subsequently injected on a Waters ACQUITY Ultraperformance liquid chromatography (UPLC) system coupled to an ACQUITY UPLC Photodiode Array (PDA) λ detector. Electrospray ionization (ESI) mass spectrograms were collected in the positive ion mode and subsequently transformed for molecular weight determination using MASSLYNX software (Waters).
Samples prepared for ESI-MS (50 μL) were pretreated with 2 μL of 10 g/l trypsin (Sigma) for 1 h at 37°C. The reaction was stopped by formic acid, and the sample was submitted to the W.M. Keck Biotechnology Resource Laboratory (Yale University) for tandem MS/MS proteomics analysis. Results were further analysed using the online MassMatrix server.
DHI inhibitors form a thioether bond with the TG active site cysteine, a modification that should be detectable by mass spectrometry. […] AgTG3 was treated with 100 μM 3 overnight and the intact protein subsequently analyzed by ESI-MS (Figure 8A). The parent mass for unmodified AgTG3 was detected at m/z = 84173 Da. […] The expected m/z shift for reaction with 3 is +470, however, […] than what was observed. To confirm the mass shift corresponds to modification of the active site cysteine with 3, treated AgTG3 was subjected to tryptic digestion and LC-MS/MS analysis. […] No other modified cysteines were detected in the protein. Taken together, the secondary in vitro assays of cross-linking and covalent modification confirm 1–3 as active site inhibitors of AgTG3.

AgTG3 [2] = target: T2, AgTG3; assay: biochemical; conditions: dose–response curves in the range of 0.5–100 μM, FITC-CAD plate assay; read-out: IC50 for inhibition of AgTG3
Experimental: Plugin-C (25 μg/well) was incubated in black 96-well Ni-coated plates (Pierce 15342) for 2 h at room temperature or overnight at 4°C. Plates were washed three times with 200 μL of TBS and loaded with 0.5 μg of AgTG3 in 50 μL TBS buffer. DHI inhibitors were added for 1 h to block the enzyme, followed by 50 μL of 2× assay buffer (2× TBS, 20 mM CaCl2, 100 μM FITC-CAD, 2 mM DTT). Wells were incubated for 60 min at room temperature, washed three times with 200 μL of TBS, and filled to a final volume of 100 μL for fluorescence measurements in a microplate reader (Biotek Synergy 2). The z-score was calculated based on the mean and standard deviation of three replicates of inhibitor compared to a DMSO control, zi=x¯DMSO-x¯i/σDMSO+σi .
The targeted chemical library was screened for inhibition of AgTG3 at 100 μM in a FITC-CAD plate assay (Figure 3A), performed in triplicate as previously described. Hit-calling was based on >67% decrease in fluorescence compared to DMSO and z > 5. Seven compounds fulfilled these criteria in the primary assay.
To verify the results of this preliminary assay, dose–response curves in the range of 0.5–100 μM were determined for 27 structurally related compounds within the targeted library (Additional file 3: Table S2 and Additional file 4: Table S3). […] Selected stereoisomers present in the targeted library were compared in equivalent dose–response assays. Inhibition of AgTG3 was specific for the (S)-DHI isomer of 1 (Figure 4A), the (R) isomer (4) displaying no activity (IC50 > 100 μM).

Q: What does the source list for `O=C(N[C@@H](Cc1c[nH]c2ccccc12)C(=O)NC[C@@H]1CC(Br)=NO1)OCc1cnc2ccccc2c1`?
A: Inhibition of caspase-1 (human caspase-1): no inhibition of the protease; Mass shift of intact AgTG3 after treatment (AgTG3 [1]; 100 μM overnight, ESI-MS): +465 m/z; Mass shift of tryptic peptide containing AgTG3 active site cysteine (AgTG3 [1]; 100 μM overnight, tryptic digestion, LC-MS/MS): +469 amu; Site of covalent modification of AgTG3 (AgTG3 [1]; y ion fragmentation, no other modified cysteines detected): specific modification of Cys 323; IC50 (AgTG3 [2]): 6.1 µM
